Data as given in publication PMC12238723, “Phase I Clinical Trial of CVL218, a Novel PARP1/2 Inhibitor, in Patients with Advanced Solid Tumors” (MedComm, 2025).

Tested on: patients with advanced solid tumors
Assay: Treatment-related adverse events (CTCAE v5.0), phase I dose escalation
Assay type: in vivo
Text: This study was a single‐arm, dose‐escalation phase I trial conducted in Sun Yat‐sen University Cancer Center in China. This study assessed CVL218 in patients with histologically or cytologically confirmed advanced solid tumors who were in PD after standard therapeutic regimens or lacked standard treatment options. Inclusion criteria included: age 18–75 years; with at least one measurable and evaluable target lesion per Response Evaluation Criteria in Solid Tumors 1.1 (RECIST 1.1); ECOG performance status of 0 or 1; adequate hematological, renal, cardiac, and hepatic functions and a life expectancy ≥12 weeks. Key exclusion criteria included prior usage of PARP inhibitors; allergic to the research drug or its components; with active, unstable systemic diseases or active, uncontrolled infection; a history of other malignancies within 5 years, and pregnant or lactating women.
CVL218 was administered orally, and this dose‐escalation trial included nine dose levels: 100 mg QD (50 mg BID), 200 mg QD (100 mg BID), 400 mg QD (200 mg BID), 700 mg QD (350 mg BID), 1000 mg QD (500 mg BID), 1200 mg QD (600 mg BID), 1400 mg QD (700 mg BID), 1700 mg QD (850 mg BID), and 2000 mg QD (1000 mg BID). Patients enrolled in the study received a single oral dose on the first day, followed by continuous multiple dosing (twice a day taking 12 h apart) after 72 h, with the treatment cycle lasting 4 weeks. The period during which patients received a single dose is designated as cycle 0 (C0), lasting 72 h. After this period, patients begin multiple dosing, referred to as cycle 1 (C1). An initial accelerated titration design was employed for the three lowest dose groups, and the “3+3” design was applied starting with the 300 mg BID cohort.
The primary objectives were to assess safety and tolerability as well as to determine the MTD, DLT, and dose recommended for further study. DLT was defined as any of the following events occurring during cycle 0 (including 72 h wash‐out period after a single dose) and cycle 1 per Common Terminology Criteria for Adverse Events (CTCAE) version 5.0: grade 4 anemia; grade 4 neutropenia; grade 3 neutropenia with fever ≥38.5°C; grade 4 thrombocytopenia; grade 3 thrombocytopenia associated with bleeding; grade ≥2 neurotoxicity; any other grade ≥3 nonhematological toxicities (excluding alopecia). The secondary objectives were to assess the PK and preliminary efficacy of CVL218.
Subjects who received at least one dose of CVL218 with postadministration safety records were included in safety analysis set. Subjects who received at least one dose of CVL218 with at least one evaluable PK parameter were included in PK analysis set. Per‐protocol set were used for efficacy analysis. Descriptive statistics of safety were presented per CTCAE v5.0. The PK parameters T max and T 1/2 were shown as the median (min, max) and mean ± SD, respectively. A two‐sided p < 0.05 was considered to indicate statistical significance. Statistical analysis was performed by using GraphPad prism 8.0.2 and R‐4.3.3.

CNCc1ccc(-c2cc3cc(F)cc(C(N)=O)c3o2)cc1.Cl [CVL218]
0 n (%): Headache (200 mg BID, ≥G3) | Hypoalbuminemia (200 mg BID, ≥G3) | Infusion site pain (200 mg BID, ≥G3) | Laboratory test disorders (200 mg BID, ≥G3) | Limb discomfort (200 mg BID, ≥G3) | Lipase increased (200 mg BID, ≥G3) | Metabolic disorders (200 mg BID, ≥G3) | Musculoskeletal discomfort (200 mg BID, ≥G3) | Musculoskeletal disorders (200 mg BID, ≥G3) | Nausea (200 mg BID, ≥G3) | Nervous system disorders (200 mg BID, ≥G3) | Neutrophil count decreased (200 mg BID, ≥G3) | Neutrophil count increased (200 mg BID, ≥G3) | Palpitations (200 mg BID, ≥G3) | Protein urine present (200 mg BID, ≥G3) | Proteinuria (200 mg BID, ≥G3) | Rash (200 mg BID, ≥G3) | Renal & urinary disorders (200 mg BID, ≥G3) | Renal failure (200 mg BID, ≥G3) | Reproductive disorders (200 mg BID, ≥G3) | Skin disorders (200 mg BID, ≥G3) | Urinary occult blood positive (200 mg BID, ≥G3) | Vomiting (200 mg BID, ≥G3) | WBC count decreased (200 mg BID, ≥G3) | WBC count increased (200 mg BID, ≥G3) | Infusion site pain (350 mg BID, ALL) | WBC count increased (350 mg BID, ALL) | ALT increased (350 mg BID, ≥G3) | AST increased (350 mg BID, ≥G3) | Abdominal distension (350 mg BID, ≥G3) | Abdominal pain (350 mg BID, ≥G3) | Abdominal pain upper (350 mg BID, ≥G3) | Amylase increased (350 mg BID, ≥G3) | Anemia (350 mg BID, ≥G3) | Any AE related to study drug (350 mg BID, ≥G3) | Asthenia (350 mg BID, ≥G3) | Blood creatinine increased (350 mg BID, ≥G3) | Blood system disorders (350 mg BID, ≥G3) | Blood triglycerides increased (350 mg BID, ≥G3) | Blood urea increased (350 mg BID, ≥G3) | Cardiac disorders (350 mg BID, ≥G3) | Chest discomfort (350 mg BID, ≥G3) | Constipation (350 mg BID, ≥G3) | Decreased appetite (350 mg BID, ≥G3) | Diarrhea (350 mg BID, ≥G3) | Dizziness (350 mg BID, ≥G3) | Erectile dysfunction (350 mg BID, ≥G3) | Gastrointestinal disorders (350 mg BID, ≥G3) | General disorders (350 mg BID, ≥G3) | Gingival bleeding (350 mg BID, ≥G3) | Granulocyte count increased (350 mg BID, ≥G3) | Headache (350 mg BID, ≥G3) | Hypoalbuminemia (350 mg BID, ≥G3) | Infusion site pain (350 mg BID, ≥G3) | Laboratory test disorders (350 mg BID, ≥G3) | Limb discomfort (350 mg BID, ≥G3) | Lipase increased (350 mg BID, ≥G3) | Metabolic disorders (350 mg BID, ≥G3) | Musculoskeletal discomfort (350 mg BID, ≥G3) | Musculoskeletal disorders (350 mg BID, ≥G3) | Nausea (350 mg BID, ≥G3) | Nervous system disorders (350 mg BID, ≥G3) | Neutrophil count decreased (350 mg BID, ≥G3) | Neutrophil count increased (350 mg BID, ≥G3)
